Common to all, as to format: cell-based
Series [1] is described as follows: in vitro.
Series [2] can be described thus: Cytotoxicity against 3T3 cells. The settings on record: mouse.
The test system of series [3] is P. falciparum 3D7 (chloroquine-sensitive). The experiment in a line: Anti-malarial activity, P. falciparum 3D7 culture, 72 hour, DNA content by flow cytometry. The settings on record: Plasmodium falciparum, 3D7, 72 h, synchronized ring-stage parasites. The protocol: Numerous compounds were screened in cultures of the malaria parasite P. falciparum 3D7 (chloroquine-sensitive) and DD2 (chloroquine-resistant). The compounds were also screened for toxixcity against 3T3 cells, HepG2 cells, and in a hemolysis assay. In brief, P. falciparum parasites were cultured in RPMI 1640 (Invitrogen) supplemented with Albumax II (Invitrogen). For synchronization, schizont stage parasites were magnet purified using a SuperMACS™ II Cell Separation Unit (Miltenyi Biotech). For IC50 determinations, synchronized ring-stage parasites were plated at 0.5% parasitemia and 8% hematocrit in 96-well plates at a total volume of 50 μL. Serial dilutions of 2× concentration of the respective compound, ranging from 2.5 μM to 20 nM, were added to the wells to bring the total volume up to 100 μL and 4% hematocrit. Compounds were assayed for a 72 hour period, after which the cultures were fixed with a solution of 4% paraformaldehyde and 0.08% glutaraldhyde in PBS. The cells were then permeabilized with 0.25% Triton X-100, and SYTOX Green Nucleic Acid Stain (Invitrogen) in PBS was added to a final concentration of 5 μM. DNA content, as an indicator of parasitemia, was analyzed on an Accuri C6 Flow Cytometer with C-Sampler. IC50 curves were generated using GraphPad Prism (GraphPad Software).

A short description of series [4]: Cytotoxicity against HepG2 cells. Particulars: human.
[5] abbreviates: 3T3 cells, read-out: Cytotoxicity 3T3 EC50.
Setting [6] is: HepG2 cells, read-out: Cytotoxicity HepG2 EC50.

34 compounds from US20150094294A1, “COMPOUNDS AND METHODS FOR TREATING MALARIA” (Cellceutix Corporation, priority 2012, published 2015) can be followed below.

Converted amounts (≈) assume the structure as drawn.

What is called EC50 is the concentration needed to bring the measured effect to its halfway point. A word on the IC50: it is the point on the concentration scale where inhibition reaches its midpoint. A high value points to a need for much substance. With `O=C(Nc1ccc(O[C@@H]2CCNC2)cc1)c1cccc(C(=O)Nc2ccc(O[C@@H]3CCNC3)cc2)n1` [Compound 193], the values for the EC50 in series [1], in series [2] (setting [5]) and in series [4] (setting [6]) were greater than 1000 µg/mL, greater than 1000 µM and greater than 1000 µM, respectively. This compound also displayed an IC50 in series [3] of 0.045 µM.
For `O=S(=O)(c1ccc(Oc2cc(NC3CCNCC3)cc(C(F)(F)F)c2)cc1)c1ccc(Oc2cc(NC3CCNCC3)cc(C(F)(F)F)c2)cc1` [Compound 163], the concentration for a half-maximal effect (EC50) in series [2] (setting [5]) came out at 60 µM; in series [4] (setting [6]) it was 98 µM.
As for `O=C(Nc1ccc(O[C@@H]2CCNC2)nc1)c1cc(C(=O)Nc2ccc(O[C@@H]3CCNC3)nc2)ncn1` [Compound 215], the EC50 was greater than 1000 µg/mL in series [1], greater than 1000 µM in series [2] (setting [5]) and greater than 1000 µM in series [4] (setting [6]). This compound also gave a half-inhibitory concentration (IC50) in series [3] greater than 0.1 µM.
As to `NCCSc1c(NC(=O)c2cccc(Br)c2)cc(C(F)(F)F)cc1NC(=O)c1cc(C(=O)Nc2cc(C(F)(F)F)cc(NC(=O)c3cccc(Br)c3)c2SCCN)ncn1` [Compound 306], the results for the EC50 in series [1], in series [2] (setting [5]) and in series [4] (setting [6]) were 793 µg/mL (≈ 792 µM), 814 µM and 814 µM, respectively. This compound returned an IC50 in series [3] greater than 0.1 µM.
As for `N#Cc1ccc(C(=O)Nc2cc(C(F)(F)F)cc(NC(=O)c3cc(C(=O)Nc4cc(C(F)(F)F)cc(NC(=O)c5ccc(C#N)cc5)c4SCCN)ncn3)c2SCCN)cc1` [Compound 307], the EC50 in series [1] is 757 µg/mL (≈ 848 µM); in series [2] (setting [5]), 846 µM; in series [4] (setting [6]), 892 µM. In series [3], this compound had an IC50 of 0.041 µM.
For `N=C(N)N1CCN(c2ccc(-c3cccc(-c4ccc(N5CCN(C(=N)N)CC5)nc4)c3)cn2)CC1` [Compound 258], in that order: 545 µg/mL (≈ 1120 µM), 165 µM, 305 µM and 0.058 µM.
Take `O=C(Nc1ccc(OC2CNC2)cc1)c1cc(C(=O)Nc2ccc(OC3CNC3)cc2)ncn1` [Compound 196]: the figures for the EC50 in series [1], in series [2] (setting [5]) and in series [4] (setting [6]) were 164 µg/mL (≈ 356 µM), greater than 1000 µM and 940 µM, respectively. The IC50 in series [3] was determined as 0.03 µM.
For `N=C(N)N1CCN(c2ccc(-c3ccc(-c4ccc(N5CCN(C(=N)N)CC5)cc4)s3)cc2)CC1` [Compound 253], the values for the EC50 in series [1], in series [2] (setting [5]) and in series [4] (setting [6]) were 8 µg/mL (≈ 16.4 µM), 419 µM and 606 µM, respectively. The same compound displayed an IC50 in series [3] of 0.107 µM.
For `N=C(N)NCCc1cccc(-c2cncc(-c3cccc(CCNC(=N)N)c3)c2)c1` [Compound 134], the EC50 was greater than 1000 µg/mL in series [1], 654 µM in series [2] (setting [5]) and 905 µM in series [4] (setting [6]). Half-maximal inhibition in series [3] (IC50) was put at 0.126 µM.
On to `c1cc(N2CCNCC2)ccc1-c1ccc(N2CCNCC2)cc1` [Compound 317], for which the results for the EC50 in series [1], in series [2] (setting [5]) and in series [4] (setting [6]) were greater than 1000 µg/mL, 553 µM and 500 µM, respectively. This compound also showed an IC50 in series [3] greater than 0.1 µM.
For `N=C(N)NCCCOc1cc(OCCCNC(=N)N)c(-c2ccncc2)cc1-c1ccncc1` [Compound 140], in that order: greater than 1000 µg/mL, greater than 1450 µM, greater than 1450 µM and 0.602 µM.
For `NC1CCC(Oc2ccc(NC(=O)c3cc(C(=O)Nc4ccc(OC5CCC(N)CC5)cc4)ncn3)cc2)CC1` (centres unmarked) [Compound 200], the EC50 in series [1] is 24 µg/mL (≈ 44.1 µM); in series [2] (setting [5]), 27 µM; in series [4] (setting [6]) it was 37 µM. Besides, the IC50 in series [3] was found to be 0.004 µM.
Turning to `N=C(N)N1CC=C(c2ccc(NC(=O)c3cc(C(=O)Nc4ccc(C5=CCN(C(=N)N)CC5)cc4)ncn3)cc2)CC1` [Compound 219], the EC50 in series [2] (setting [5]) was 919 µM; in series [4] (setting [6]), greater than 1000 µM.
With `N=C(N)NCCCc1cccc(-c2cncc(-c3cccc(CCCNC(=N)N)c3)c2)c1` [Compound 132], the EC50 in series [1] was greater than 1000 µg/mL; in series [2] (setting [5]), 323 µM; in series [4] (setting [6]), 456 µM. The compound also had an IC50 in series [3] of 0.112 µM.
For the compound `CCn1c2ccc(N3CCN(C(=N)N)CC3)cc2c2cc(N3CCN(C(=N)N)CC3)ccc21` [Compound 294], the EC50 in series [2] (setting [5]) and in series [4] (setting [6]) was greater than 1000 µM each time. For the same compound, the IC50 in series [3] was greater than 0.1 µM.
Take `c1cc(-c2ccc(N3CCNCC3)nc2)cc(-c2ccc(N3CCNCC3)nc2)c1` [Compound 257]: the figures for the EC50 in series [1], in series [2] (setting [5]) and in series [4] (setting [6]) were greater than 1000 µg/mL, 40 µM and 220 µM, respectively. In series [3], this compound had a half-maximal inhibitory concentration (IC50) greater than 0.1 µM.
For `c1cc(N2CCNCC2)ccc1-c1ccc(-c2ccc(N3CCNCC3)cc2)o1` [Compound 255], in that order: 28 µg/mL (≈ 72.1 µM), 29 µM, 45 µM and 0.152 µM.
With `NCCCn1c2ccc(C3=CCNCC3)cc2c2cc(C3=CCNCC3)ccc21` [Compound 288], the EC50 in series [1] (hemolysis assay, read-out: Cytotoxicity Hemolysis EC50) is greater than 1000 µg/mL; in series [2], greater than 1000 µM; in series [4] it was greater than 1000 µM.
With `N=C(N)NCCc1ccc(-c2ccc(-c3ccc(CCNC(=N)N)cc3)s2)cc1` [Compound 248], the EC50 worked out at 24 µg/mL (≈ 59 µM) in series [1], 50 µM in series [2] (setting [5]) and 54 µM in series [4] (setting [6]). Moreover, the IC50 in series [3] came to 0.003 µM.
Take `N=C(N)NCCCn1c2ccc(C3=CCNCC3)cc2c2cc(C3=CCNCC3)ccc21` [Compound 290]: the 50% effective concentration (EC50) in series [2] and in series [4] was greater than 1000 µM in each case. Further, the IC50 in series [3] is greater than 0.1 µM.
On to `NCCSc1c(NC(=O)c2cccc(F)c2)cc(C(F)(F)F)cc1NC(=O)c1cc(C(=O)Nc2cc(C(F)(F)F)cc(NC(=O)c3cccc(F)c3)c2SCCN)ncn1` [Compound 305], for which the EC50 in series [1] was determined as 223 µg/mL (≈ 254 µM); in series [2] (setting [5]), 898 µM; in series [4] (setting [6]) it was 904 µM. For the same compound, the IC50 in series [3] worked out at 0.078 µM.
For `N=C(N)NCCCCCC(=O)Nc1cccc(-c2cc(-c3ccc(NC(=O)CCCCNC(=N)N)cc3)nc(-c3ccccc3)n2)c1` [Compound 139], the EC50 in series [2] (setting [5]) is 36 µM; in series [4] (setting [6]), 23 µM. The compound also registered an IC50 in series [3] of 0.43 µM.
Turning to `CN1CC[C@@H](Oc2ccc(NC(=O)c3cc(C(=O)Nc4ccc(O[C@@H]5CCN(C)C5)c(C(F)(F)F)c4)ncn3)cc2C(F)(F)F)C1` [Compound 204], the EC50 amounted to 88 µg/mL (≈ 135 µM) in series [1], 477 µM in series [2] (setting [5]) and 483 µM in series [4] (setting [6]). Further, half-maximal inhibition in series [3] (IC50) required 0.103 µM.
`O=C(Nc1ccc(O[C@@H]2CCNC2)cc1)c1cc(C(=O)Nc2ccc(O[C@@H]3CCNC3)cc2)ncn1` [Compound 197]: the EC50 in series [1] is 187 µg/mL (≈ 383 µM); in series [2] (setting [5]), 405 µM; in series [4] (setting [6]), 881 µM. Besides, the IC50 in series [3] stood at 0.014 µM.
Regarding `COc1cccc(C(=O)Nc2cc(C(F)(F)F)cc(NC(=O)c3cc(C(=O)Nc4cc(C(F)(F)F)cc(NC(=O)c5cccc(OC)c5)c4SCCN)ncn3)c2SCCN)c1` [Compound 309], the EC50 in series [2] (setting [5]) and in series [4] (setting [6]) was greater than 1000 µM each time. It took 0.079 µM to reach half-maximal inhibition in series [3] (IC50).
In the case of `NCCSc1c(NC(=O)c2cc(C(=O)Nc3cc(C(F)(F)F)cc(NC(=O)c4ccc(Cl)cc4Cl)c3SCCN)ncn2)cc(C(F)(F)F)cc1NC(=O)c1ccc(Cl)cc1Cl` [Compound 314], the EC50 in series [2] (setting [5]) is greater than 1000 µM; in series [4] (setting [6]), 827 µM.
As to `COc1ccc(C(=O)Nc2cc(C(F)(F)F)cc(NC(=O)c3cc(C(=O)Nc4cc(C(F)(F)F)cc(NC(=O)c5ccc(OC)c(OC)c5)c4SCCN)ncn3)c2SCCN)cc1OC` [Compound 312], the EC50 in series [1] was 6 µg/mL (≈ 6.23 µM); in series [2] (setting [5]) it was greater than 10000 µM; in series [4] (setting [6]), greater than 1000 µM.
For `NCCSc1c(N)cc(C(F)(F)F)cc1NC(=O)c1cc(C(=O)Nc2cc(C(F)(F)F)cc(NC(=O)c3cccnc3)c2SCCN)ncn1` [Compound 316], in that order: 22 µg/mL (≈ 29.7 µM), 33 µM and 41 µM.
In the case of `CN1CCN(c2ccc(-c3cc(-c4ccc(N5CCN(C)CC5)cc4)ncn3)cc2)CC1` [Compound 278], the EC50 in series [2] (setting [5]) and in series [4] (setting [6]) was greater than 1000 µM in each case. In series [3], this compound had an IC50 greater than 0.1 µM.
As to `COc1cc(OC)c(C(=O)Nc2cc(C(F)(F)F)cc(NC(=O)c3cccc(C#N)c3)c2SCCN)cc1C(=O)Nc1cc(C(F)(F)F)cc(NC(=O)c2cccc(C#N)c2)c1SCCN` [Compound 300], the EC50 in series [2] (setting [5]) and in series [4] (setting [6]) was 848 µM each time.
Take `N=C(N)N1CCN(c2ccc3sc4ccc(N5CCN(C(=N)N)CC5)cc4c3c2)CC1` [Compound 292]: the EC50 in series [2] (setting [5]) was 710 µM; in series [4] (setting [6]), greater than 1000 µM. This compound also came in with an IC50 in series [3] of 0.088 µM.
As for `CN1CCN(c2ccc(NC(=O)c3cc(C(=O)Nc4ccc(N5CCN(C)CC5)cc4)ncn3)cc2)CC1` [Compound 212], the EC50 in series [2] (setting [5]) and in series [4] (setting [6]) was greater than 1000 µM in each case. The compound also came in with a 50% inhibitory concentration (IC50) in series [3] greater than 0.1 µM.
For `COc1ccc(C(=O)Nc2cc(C(F)(F)F)cc(NC(=O)c3cc(C(=O)Nc4cc(C(F)(F)F)cc(N)c4SCCN)ncn3)c2SCCN)cc1OC` [Compound 313], the EC50 in series [1] worked out at 14 µg/mL (≈ 17.5 µM); in series [2] (setting [5]), 92 µM; in series [4] (setting [6]), 545 µM.
With `N=C(N)NCCCCC(=O)Nc1cccc(NC(=O)c2cc(C(=O)Nc3cccc(NC(=O)CCCCNC(=N)N)c3SCCN)ncn2)c1SCCN` [Compound 161], the figures for the EC50 in series [2] (setting [5]) and in series [4] (setting [6]) were 697 µM and 676 µM, respectively. Further, in series [3], half-maximal inhibition (IC50) required 0.939 µM.
